Where a SMILES comes first, the peptide text is derived from it. Bridges are numbered along the chain shown (N, C = ends).
Key:
[1] = after oral administration at therapeutic dose levels; cited from earlier work
[2] = target: T1, guanylate cyclase-C (GC-C) (Homo sapiens, UniProt P25092); assay: cGMP response in T84 cells (GC-C agonist activity); type: cell-based; design: tested for guanylate cyclase-C (GC-C) agonist activity in T84 cells; endogenous in cells; host or cells: T84 cells
Procedure: Linaclotide and Cys1-IMD were tested for guanylate cyclase-C (GC-C) agonist activity in T84 cells as follows. In each well of a 96-well plate, approximately 200,000 T84 cells/well was first incubated with 1 mM 3-isobutyl-1-methylxanthine (IBMX) in 0.18 mL of Dulbecco's modified Eagle's medium (DMEM) for 10 minutes at 37° C. Each peptide was diluted to final concentrations ranging from 0.1 to 10,000 nM, and 0.02 mL of each dilution was added in duplicate to a 96-well plate containing the T84 cells, for a final volume of 0.20 mL per well. The peptide reactions were incubated for 30 min at 37° C. Following the incubation, the supernatants were removed and discarded and the cells were lysed with cold 0.1 M hydrochloric acid (HCl) for 30 min on ice. The cell debris was removed by centrifugation and the concentration of guanosine 3′,5′-cyclic monophosphate (cyclic GMP) in each lysate was determined using liquid chromatography with tandem mass spectrometry. The data were used to construct dose-response curves and calculate half-maximal effective concentration (EC50) values for each test article.

[3] = target: T1, guanylate cyclase-C (GC-C); assay: Competitive radioligand ([125I]-pSTa) binding assay on T84 cells; design: cell-surface GC-C receptors on human colonic epithelial (T84) cells; endogenous in cells; host or cells: T84 human colonic epithelial cells; conditions: competition with 170 pM [125I]-pSTa for cell-surface GC-C receptors on T84 cells; read-out: inhibition constant (Ki), relative binding affinity
Procedure: The relative binding affinities of linaclotide and Cys1-IMD to the guanylate cyclase-C receptor (GC-C) were determined using a competitive-binding assay in which the peptides competed with a known GC-C agonist, porcine-derived heat-stable enterotoxin (pSTa), for binding sites on cell-surface GC-C receptors on human colonic epithelial (T84) cells. The pSTa was radiolabeled with ^125I to enable measurement of its receptor binding. The competitive-binding assay was performed by adding various concentrations of each peptide (0.1 to 3,000 nM) to 0.20 mL reaction mixtures containing Dulbecco's modified Eagle's medium (DMEM), 0.5% bovine serum albumin (BSA), 2.0×10^5 T84 cells, and 170 pM [^125I]-pSTa (200,000 cpm). The data were used to construct competitive radioligand-binding curves and determine the relative binding affinities of linaclotide and Cys1-IMD, as measured by their IC50 and Ki values.

T1 sequence (P25092 24-1073): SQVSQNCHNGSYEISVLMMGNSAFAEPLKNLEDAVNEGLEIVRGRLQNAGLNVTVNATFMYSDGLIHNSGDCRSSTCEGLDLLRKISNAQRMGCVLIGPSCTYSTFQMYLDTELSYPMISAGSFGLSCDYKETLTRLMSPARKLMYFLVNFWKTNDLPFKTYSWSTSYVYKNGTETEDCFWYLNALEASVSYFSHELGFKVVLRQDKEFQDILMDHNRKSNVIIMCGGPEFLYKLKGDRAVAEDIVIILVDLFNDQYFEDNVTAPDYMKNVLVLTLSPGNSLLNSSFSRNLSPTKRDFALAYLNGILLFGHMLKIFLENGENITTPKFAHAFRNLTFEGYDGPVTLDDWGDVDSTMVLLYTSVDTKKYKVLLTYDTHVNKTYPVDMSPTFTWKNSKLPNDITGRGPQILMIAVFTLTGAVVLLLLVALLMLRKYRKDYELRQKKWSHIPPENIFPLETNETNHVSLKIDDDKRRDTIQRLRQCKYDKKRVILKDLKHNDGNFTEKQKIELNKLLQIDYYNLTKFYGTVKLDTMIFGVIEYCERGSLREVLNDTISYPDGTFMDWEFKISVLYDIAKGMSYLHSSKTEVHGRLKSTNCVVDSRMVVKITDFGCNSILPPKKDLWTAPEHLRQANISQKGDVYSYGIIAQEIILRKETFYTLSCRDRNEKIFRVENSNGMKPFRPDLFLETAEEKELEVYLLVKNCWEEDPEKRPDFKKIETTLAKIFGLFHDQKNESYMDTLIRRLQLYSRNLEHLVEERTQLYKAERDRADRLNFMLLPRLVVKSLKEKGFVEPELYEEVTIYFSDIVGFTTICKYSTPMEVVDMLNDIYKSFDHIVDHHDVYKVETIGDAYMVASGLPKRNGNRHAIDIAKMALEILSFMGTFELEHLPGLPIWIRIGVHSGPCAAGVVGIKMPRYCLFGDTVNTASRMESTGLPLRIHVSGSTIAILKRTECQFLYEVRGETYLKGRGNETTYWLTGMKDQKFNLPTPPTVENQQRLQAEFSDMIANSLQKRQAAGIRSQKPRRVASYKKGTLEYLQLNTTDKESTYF

Question: Which results are given for C[C@@H]1NC(=O)[C@@H]2CCCN2C(=O)[C@H](CC(N)=O)NC(=O)[C@@H]2CSSC[C@H](N)C(=O)N[C@H]3CSSC[C@H](NC1=O)C(=O)N[C@@H]([C@@H](C)O)C(=O)NCC(=O)N[C@H](C(=O)N[C@@H](Cc1ccc(O)cc1)C(=O)O)CSSC[C@H](NC(=O)[C@H](Cc1ccc(O)cc1)NC(=O)[C@H](CCC(=O)O)NC3=O)C(=O)N2 [Linaclotide, Cys Cys Glu Tyr Cys Cys Asn Pro Ala Cys Thr Gly Cys Tyr] (H-CCEYCCNPACTGCY-OH; disulfide 1-6, 2-10, 5-13 (inferred); N-terminus and C-terminus assumed)?
Answer: levels of linaclotide seen systemically [1]: no detectable levels; EC50 [2]: 0.315 ± 0.105 µM; Ki [3]: 0.0039 ± 0.0016 µM

Reference: patent US8933030B2, “Treatments for gastrointestinal disorders” (Ironwwod Pharmaceuticals, Inc., priority 2010, dated 2015)
